Data from ChEMBL document CHEMBL1201862, “PubChem BioAssay data set” (2004).
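96-well plates; 48 h exposure; 5 concentrations. Endpoints by linear interpolation between flanking doses. Not reached: highest tested concentration assigned. Here, GI50 denotes the concentration required for 50% inhibition of growth.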 Active and inactive are the calls of the source. Rule as the data show it: active = GI50 up to about 1.1 µM and inactive = higher.

How the values were obtained:
Experiment in all cases: DTP human tumour cell line panel, 48 h
[1] = system: CCRF-CEM
[2] = system: HCC 2998
[3] = system: PC-3
[4] = system: MDA-MB-231
[5] = system: EKVX
[6] = system: T47D
[7] = system: UO-31
[8] = system: RPMI-8226
[9] = system: COLO 205
[10] = system: OVCAR-3
[11] = system: MOLT-4
[12] = system: MDA-MB-435
[13] = system: OVCAR-4
[14] = system: SF-295
[15] = system: NCI-H23
[16] = system: LOX IMVI
[17] = system: CAKI-1
[18] = system: HL-60
[19] = system: TK-10
[20] = system: BT-549

Measured: GI50

Cc1[nH]c(=O)nc(NCCNCCO)c1C(=O)Nc1c2ccccc2nc2ccccc12
inactive: [1] > 100 µM | [2] > 100 µM | [3] > 100 µM | [4] > 100 µM | [5] > 100 µM | [6] > 100 µM | [7] > 100 µM | [8] > 100 µM | [9] > 100 µM | [10] > 100 µM | [11] > 100 µM | [12] > 100 µM | [13] > 100 µM | [14] > 100 µM | [15] > 100 µM | [16] > 100 µM | [17] > 100 µM | [18] > 100 µM | [19] > 100 µM

CC(C)(Br)C(=O)N1CCN(C(c2ccccc2)c2ccccc2)CC1
inactive: [1] 49.2 µM | [2] > 100 µM | [3] 50.1 µM | [4] > 100 µM | [5] 40.6 µM | [7] 68.7 µM | [9] > 100 µM | [10] 19.8 µM | [11] 30.1 µM | [12] > 100 µM | [13] > 100 µM | [14] > 100 µM | [20] > 100 µM | [15] > 100 µM | [16] > 100 µM | [17] 84.1 µM | [18] 21.5 µM | [19] > 100 µM

Cc1cc2c(cc1Cl)Sc1n[nH]c(=O)n1S2(=O)=O
inactive: [1] > 100 µM | [2] > 100 µM | [3] > 100 µM | [4] > 100 µM | [5] > 100 µM | [7] > 100 µM | [9] > 100 µM | [10] 95.5 µM | [11] > 100 µM | [12] > 100 µM | [13] > 100 µM | [14] > 100 µM | [20] > 100 µM | [15] > 100 µM | [16] > 100 µM | [17] > 100 µM | [18] > 100 µM | [19] > 100 µM

Cc1ccc(SCC(CSCCO)OCn2cnc3c2N=C(N)NC32OCCO2)cc1 (centres undefined)
inactive: [1] > 100 µM | [2] > 100 µM | [3] > 100 µM | [4] > 100 µM | [5] 83 µM | [6] > 100 µM | [7] > 100 µM | [8] > 100 µM | [10] > 100 µM | [11] > 100 µM | [12] > 100 µM | [13] > 100 µM | [14] > 100 µM | [15] > 100 µM | [16] > 100 µM | [17] > 100 µM | [18] > 100 µM | [19] > 100 µM

C[C@@H](C1CC[C@H]2[C@@H]3[C@@H]4O[C@@H]4[C@@]4(O)CC=CC(=O)[C@]4(C)[C@H]3C[C@H](O)[C@]12C)[C@H]1C[C@]2(C)O[C@]2(C)C(=O)O1 (some centres undefined)
inactive: [1] 56.6 µM | [2] > 100 µM | [3] > 100 µM | [4] > 100 µM | [5] > 100 µM | [6] > 100 µM | [7] > 100 µM | [8] > 100 µM | [9] > 100 µM | [10] > 100 µM | [11] > 100 µM | [12] > 100 µM | [13] > 100 µM | [14] > 100 µM | [15] > 100 µM | [16] > 100 µM | [17] > 100 µM | [18] > 100 µM | [19] > 100 µM

O=C1CC(c2cccc(Cl)c2)Oc2ccccc21 (centres undefined)
inactive: [1] 10.1 µM | [2] 15.4 µM | [3] 15.7 µM | [4] 34.5 µM | [5] 14.8 µM | [6] 12.7 µM | [7] 13.8 µM | [8] 3.65 µM | [9] 23.7 µM | [12] 17.4 µM | [13] 22.4 µM | [14] 19.4 µM | [15] 10.2 µM | [16] 20 µM | [17] 6.18 µM | [18] 11.1 µM | [19] > 10 µM
